Blank lines part the entries; values can stand above or below the molecule they belong to.
Tested on: B16F0 melanoma tumour
Assay: Biodistribution in B16 melanoma bearing mice
Type: in vivo, C57BL/6J mice
Conditions: for Organ distribution Intestine / Organ distribution Liver / Organ distribution Spleen / Organ distribution Stomach / Organ distribution Thyroid / Organ distribution Tumour: B16F0 tumour, mean ± S.D.
Method: Animal experiments were performed in compliance with the NHMRC Australian Code of Practice for the care and use of animals for scientific purposes. Female C57BL/6J black and BALB/c nude albino mice of 5 weeks age were obtained from the Animal Resources Centre, Western Australia. B16F0 murine melanoma cells were originally obtained from European Collection of Cell Cultures (UK) and A375 human amelanotic melanoma cells were originally obtained from American Type Culture Collection (USA). Before transplantation, B16F0 and A375 melanoma cells were maintained as a monolayer in RPMI culture medium supplemented with 10% foetal calf serum and antibiotics and passaged with trypsinisation. Early passages were frozen and stored in liquid nitrogen. Cells were passaged to P=10 and then discarded. Frozen aliquots were grown in a monolayer culture to between 80-95% confluence and for transplantation were trypsinised and washed with Ca^2+ and Mg^2+ free phosphate buffered saline (PBS). For inoculation, B16F0 melanoma cells were resuspended in Ca^2+ and Mg^2+ free PBS at 3 or 5×10^6 viable cells per ml and 0.1 ml was subcutaneously injected at the left flank of 6-7 weeks old C57BL/6J mice. Eleven days later, tumours could be palpated in >98% of inoculated animals. A375 human melanoma cells were resuspended at 1×10^7 viablecells per ml and 0.1 ml was injected subcutaneously at the left flank of 6 weeks old BALB/c nude mice and 25-26 days later tumours could be palpated with ˜60% of inoculated animals developing tumours.
Eleven days (B16F0 melanoma) and 25 days (A375 human melanoma) after tumour transplantation, the [^18F]nicotinamides (0.5-1.5 MBq, 100 μl) and [^123I]nicotinamide (0.37-0.74 MBq, 100 μl) derivatives were injected intravenously via the tail vein into mice (15-18 g). Time points of 1, 3, 6, 24, 48, 72 h after injection were chosen for determining the distribution of each compound in various organs and tissues for the iodine-123 labelled compounds and between 15 min and 6 hours (e.g. 15 min, 30 min, 1 h, 2 h, 4 h or 6 h) were chosen for the ^18F-labelled compounds. At defined times post injection, groups of mice (n=5) were weighed, sacrificed by CO2 administration followed by cervical dislocation and dissected. Selected organs were weighed and their radioactivity measured with a γ-counter. The remaining activity in the carcass was also determined in order to obtain the total activity in the mouse at defined time points. The fraction of injected activity (% ID) in the organ was calculated by comparison with suitable dilutions of the injected dose. Then, the radioactivity concentration in the organ (% ID/g) was found by dividing the % ID for each organ by the weight of the organ.

[1] = B16 tumour, C57BL/6J mice, 1 h, mean ± SD, n = 5
[2] = B16 tumour, C57BL/6J mice, 6 h, mean ± SD, n = 5
[3] = B16 tumour, C57BL/6J mice, 24 h
[4] = B16 tumour, C57BL/6J mice, 24 h, mean ± SD, n = 5
[5] = B16 melanoma bearing mice, 15 min

Organ distribution Intestine (C57BL/6J mice, 1 h, n = 5): 58 ± 2 % ID/organ
Organ distribution Liver (C57BL/6J mice, 1 h, n = 5): 3.6 ± 0.9 % ID/organ
Organ distribution Spleen (C57BL/6J mice, 1 h, n = 5): 0.05 ± 0.01 % ID/organ
Organ distribution Stomach (C57BL/6J mice, 1 h, n = 5): 1.7 ± 0.6 % ID/organ
Organ distribution Thyroid (C57BL/6J mice, 1 h, n = 5): 0.30 ± 0.08 % ID/organ
Organ distribution Tumour (C57BL/6J mice, 1 h, n = 5): 2.6 ± 1.0 % ID/organ
Organ distribution Intestine (C57BL/6J mice, 6 h, n = 5): 30 ± 3 % ID/organ
Organ distribution Liver (C57BL/6J mice, 6 h, n = 5): 1.9 ± 0.4 % ID/organ
Organ distribution Spleen (C57BL/6J mice, 6 h, n = 5): 0.04 ± 0.02 % ID/organ
Organ distribution Stomach (C57BL/6J mice, 6 h, n = 5): 4 ± 3 % ID/organ
Organ distribution Thyroid (C57BL/6J mice, 6 h, n = 5): 1.1 ± 0.4 % ID/organ
Organ distribution Tumour (C57BL/6J mice, 6 h, n = 5): 1.7 ± 0.5 % ID/organ
Organ distribution Intestine (C57BL/6J mice, 24 h, n = 5): 0.4 ± 0.1 % ID/organ
Organ distribution Liver (C57BL/6J mice, 24 h, n = 5): 0.13 ± 0.04 % ID/organ
Organ distribution Spleen (C57BL/6J mice, 24 h, n = 5): 0.00 ± 0.00 % ID/organ
Organ distribution Stomach (C57BL/6J mice, 24 h, n = 5): 0.07 ± 0.02 % ID/organ
Organ distribution Thyroid (C57BL/6J mice, 24 h, n = 5): 1.4 ± 0.6 % ID/organ
Organ distribution Tumour (C57BL/6J mice, 24 h, n = 5): 0.36 ± 0.07 % ID/organ
tumour standardized uptake value (SUVt) (B16 tumour, C57BL/6J mice, 1 h): 1.5 ± 0.4
Uptake Lung [1]: 0.90 ± 0.06 % ID/g
uptake BLOOD [1]: 0.89 ± 0.07 % ID/g
uptake BRAIN [1]: 0.20 ± 0.02 % ID/g
uptake HEART [1]: 0.49 ± 0.03 % ID/g
uptake KIDNEY [1]: 4.2 ± 0.6 % ID/g
uptake LIVER [1]: 3.6 ± 0.9 % ID/g
uptake TUMOUR [1]: 6.0 ± 1.6 % ID/g
tumour standardized uptake value (SUVt) (B16 tumour, C57BL/6J mice, 6 h): 1.7 ± 0.5
Uptake Lung [2]: 0.46 ± 0.13 % ID/g
uptake BLOOD [2]: 0.60 ± 0.17 % ID/g
uptake BRAIN [2]: 0.05 ± 0.01 % ID/g
uptake HEART [2]: 0.24 ± 0.08 % ID/g
uptake KIDNEY [2]: 2.4 ± 0.4 % ID/g
uptake LIVER [2]: 2.2 ± 0.6 % ID/g
uptake TUMOUR [2]: 3.9 ± 0.9 % ID/g
tumour standardized uptake value (SUVt) [3]: 9 ± 2
Uptake Lung [4]: 0.03 ± 0.01 % ID/g
uptake BLOOD [4]: 0.04 ± 0.01 % ID/g
uptake BRAIN [4]: 0.001 % ID/g
uptake HEART [4]: 0.02 ± 0.01 % ID/g
uptake KIDNEY [4]: 0.08 ± 0.01 % ID/g
uptake LIVER [4]: 0.12 ± 0.02 % ID/g
uptake TUMOUR [4]: 1.0 ± 0.2 % ID/g
Compound: O=C(c1cncc(I)c1)N1CCN(Cc2ccccc2)CC1 [[^123I]20, (4-Benzylpiperazin-1-yl)(5-iodopyridin-3-yl)methanone]

uptake BLOOD [5]: 2.55 % ID/g
uptake BONE [5]: 4.03 % ID/g
uptake BRAIN [5]: 3.47 % ID/g
uptake EYES [5]: 17.25 % ID/g
uptake GIT [5]: 7.03 % ID/g
uptake HEART [5]: 3.51 % ID/g
uptake KIDNEY [5]: 19.45 % ID/g
uptake LIVER [5]: 12.65 % ID/g
uptake LUNGS [5]: 5.67 % ID/g
uptake MUSCLE [5]: 4.16 % ID/g
uptake SKIN [5]: 2.40 % ID/g
uptake SPLEEN [5]: 10.27 % ID/g
uptake STOMACH [5]: 13.20 % ID/g
uptake THYROID [5]: 4.81 % ID/g
uptake TUMOUR [5]: 6.99 % ID/g
uptake BLOOD (B16 melanoma bearing mice, 1 h): 0.77 % ID/g
uptake BONE (B16 melanoma bearing mice, 1 h): 1.52 % ID/g
uptake BRAIN (B16 melanoma bearing mice, 1 h): 1.37 % ID/g
uptake EYES (B16 melanoma bearing mice, 1 h): 23.66 % ID/g
uptake GIT (B16 melanoma bearing mice, 1 h): 2.85 % ID/g
uptake HEART (B16 melanoma bearing mice, 1 h): 1.14 % ID/g
uptake KIDNEY (B16 melanoma bearing mice, 1 h): 4.75 % ID/g
uptake LIVER (B16 melanoma bearing mice, 1 h): 3.19 % ID/g
uptake LUNGS (B16 melanoma bearing mice, 1 h): 1.81 % ID/g
uptake MUSCLE (B16 melanoma bearing mice, 1 h): 1.27 % ID/g
uptake SKIN (B16 melanoma bearing mice, 1 h): 0.88 % ID/g
uptake SPLEEN (B16 melanoma bearing mice, 1 h): 3.19 % ID/g
uptake STOMACH (B16 melanoma bearing mice, 1 h): 5.25 % ID/g
uptake THYROID (B16 melanoma bearing mice, 1 h): 2.22 % ID/g
uptake TUMOUR (B16 melanoma bearing mice, 1 h): 12.22 % ID/g
uptake BLOOD (B16 melanoma bearing mice, 3 h): 0.12 % ID/g
uptake BONE (B16 melanoma bearing mice, 3 h): 0.77 % ID/g
uptake BRAIN (B16 melanoma bearing mice, 3 h): 0.19 % ID/g
uptake EYES (B16 melanoma bearing mice, 3 h): 18.81 % ID/g
uptake GIT (B16 melanoma bearing mice, 3 h): 0.72 % ID/g
uptake HEART (B16 melanoma bearing mice, 3 h): 0.33 % ID/g
uptake KIDNEY (B16 melanoma bearing mice, 3 h): 0.45 % ID/g
uptake LIVER (B16 melanoma bearing mice, 3 h): 0.42 % ID/g
uptake LUNGS (B16 melanoma bearing mice, 3 h): 0.37 % ID/g
uptake MUSCLE (B16 melanoma bearing mice, 3 h): 0.28 % ID/g
uptake SKIN (B16 melanoma bearing mice, 3 h): 0.15 % ID/g
uptake SPLEEN (B16 melanoma bearing mice, 3 h): 2.32 % ID/g
uptake STOMACH (B16 melanoma bearing mice, 3 h): 0.82 % ID/g
uptake THYROID (B16 melanoma bearing mice, 3 h): 1.48 % ID/g
uptake TUMOUR (B16 melanoma bearing mice, 3 h): 8.80 % ID/g
uptake BLOOD (B16 melanoma bearing mice, 6 h): 0.06 % ID/g
uptake BONE (B16 melanoma bearing mice, 6 h): 0.43 % ID/g
uptake BRAIN (B16 melanoma bearing mice, 6 h): 0.07 % ID/g
uptake EYES (B16 melanoma bearing mice, 6 h): 16.49 % ID/g
uptake GIT (B16 melanoma bearing mice, 6 h): 0.23 % ID/g
uptake HEART (B16 melanoma bearing mice, 6 h): 0.17 % ID/g
uptake KIDNEY (B16 melanoma bearing mice, 6 h): 0.25 % ID/g
uptake LIVER (B16 melanoma bearing mice, 6 h): 0.60 % ID/g
uptake LUNGS (B16 melanoma bearing mice, 6 h): 0.14 % ID/g
uptake MUSCLE (B16 melanoma bearing mice, 6 h): 0.17 % ID/g
uptake SKIN (B16 melanoma bearing mice, 6 h): 0.29 % ID/g
uptake SPLEEN (B16 melanoma bearing mice, 6 h): 1.31 % ID/g
uptake STOMACH (B16 melanoma bearing mice, 6 h): 0.30 % ID/g
uptake THYROID (B16 melanoma bearing mice, 6 h): 1.02 % ID/g
uptake TUMOUR (B16 melanoma bearing mice, 6 h): 7.20 % ID/g
Compound: CCN(CC)CCNC(=O)c1ccnc(F)c1 [[^18F]MEL8, 6-Fluoro-N-[2-(diethylamino)ethyl]isonicotinamide]

Organ distribution Intestine (C57BL/6J mice, 1 h, n = 5): 15 ± 1 % ID/organ
Organ distribution Liver (C57BL/6J mice, 1 h, n = 5): 2.0 ± 0.1 % ID/organ
Organ distribution Spleen (C57BL/6J mice, 1 h, n = 5): 0.54 ± 0.09 % ID/organ
Organ distribution Stomach (C57BL/6J mice, 1 h, n = 5): 6 ± 1 % ID/organ
Organ distribution Thyroid (C57BL/6J mice, 1 h, n = 5): 1.3 ± 0.4 % ID/organ
Organ distribution Tumour (C57BL/6J mice, 1 h, n = 5): 0.64 ± 0.20 % ID/organ
Organ distribution Intestine (C57BL/6J mice, 6 h, n = 5): 9 ± 1 % ID/organ
Organ distribution Liver (C57BL/6J mice, 6 h, n = 5): 0.95 ± 0.15 % ID/organ
Organ distribution Spleen (C57BL/6J mice, 6 h, n = 5): 0.13 ± 0.02 % ID/organ
Organ distribution Stomach (C57BL/6J mice, 6 h, n = 5): 6 ± 2 % ID/organ
Organ distribution Thyroid (C57BL/6J mice, 6 h, n = 5): 4.0 ± 0.9 % ID/organ
Organ distribution Tumour (C57BL/6J mice, 6 h, n = 5): 1.0 ± 0.2 % ID/organ
Organ distribution Intestine (C57BL/6J mice, 24 h, n = 5): 0.40 ± 0.07 % ID/organ
Organ distribution Liver (C57BL/6J mice, 24 h, n = 5): 0.14 ± 0.03 % ID/organ
Organ distribution Spleen (C57BL/6J mice, 24 h, n = 5): 0.02 ± 0.03 % ID/organ
Organ distribution Stomach (C57BL/6J mice, 24 h, n = 5): 0.17 ± 0.04 % ID/organ
Organ distribution Thyroid (C57BL/6J mice, 24 h, n = 5): 6.0 ± 1.6 % ID/organ
Organ distribution Tumour (C57BL/6J mice, 24 h, n = 5): 0.62 ± 0.22 % ID/organ
tumour standardized uptake value (SUVt) (B16 tumour, C57BL/6J mice, 1 h): 1.8 ± 0.1
Uptake Lung [1]: 7.5 ± 0.2 % ID/g
uptake BLOOD [1]: 3.1 ± 0.1 % ID/g
uptake BRAIN [1]: 0.42 ± 0.02 % ID/g
uptake HEART [1]: 1.9 ± 0.1 % ID/g
uptake KIDNEY [1]: 3.5 ± 0.2 % ID/g
uptake LIVER [1]: 2.1 ± 0.2 % ID/g
uptake TUMOUR [1]: 5.6 ± 0.3 % ID/g
tumour standardized uptake value (SUVt) (B16 tumour, C57BL/6J mice, 6 h): 2.2 ± 0.4
Uptake Lung [2]: 2.2 ± 0.2 % ID/g
uptake BLOOD [2]: 2.4 ± 0.3 % ID/g
uptake BRAIN [2]: 0.16 ± 0.03 % ID/g
uptake HEART [2]: 0.8 ± 0.1 % ID/g
uptake KIDNEY [2]: 1.7 ± 0.3 % ID/g
uptake LIVER [2]: 1.1 ± 0.1 % ID/g
uptake TUMOUR [2]: 5.0 ± 0.7 % ID/g
tumour standardized uptake value (SUVt) [3]: 5.1 ± 1.3
Uptake Lung [4]: 0.15 ± 0.3 % ID/g
uptake BLOOD [4]: 0.13 ± 0.03 % ID/g
uptake BRAIN [4]: 0.02 % ID/g
uptake HEART [4]: 0.09 ± 0.02 % ID/g
uptake KIDNEY [4]: 0.12 ± 0.03 % ID/g
uptake LIVER [4]: 0.15 ± 0.03 % ID/g
uptake TUMOUR [4]: 2.3 ± 0.4 % ID/g
Compound: CCCN(CCC)CCCCNC(=O)c1cncc(I)c1 [[^123I]17, N-(4-(Dipropylamino)butyl)-5-iodonicotinamide]

From patent US20110178396A1, “Nicotinamide Derivatives” (CRC FOR BIOMEDICAL IMAGING DEVELOPMENT LTD., priority 2008, published 2011)
